PubChem BioAssay (NCI)
Where “and” joins values, the source holds several entries; their conditions need not be identical. Equal entries are not always repeated.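 Results reflect a 48-hour exposure of cells in 96-well plates to compound at five concentrations. Abbreviation: GI50, concentration required for 50% inhibition of growth. At the TGI there is no net growth.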

Experiments:
Assay in all cases: NCI-60 cell line screen, 48 h
DLD-1 colon = system: DLD-1 colon
DMS 273 small cell lung = system: DMS 273 small cell lung
HOP-18 NSCLC = system: HOP-18 NSCLC
KM20L2 colon = system: KM20L2 colon
M19-MEL melanoma = system: M19-MEL melanoma
RXF-631 renal = system: RXF-631 renal
SNB-78 CNS = system: SNB-78 CNS
XF 498 CNS = system: XF 498 CNS
MDA-N = system: MDA-N
SN12K1 renal = system: SN12K1 renal

O=C1[C@H]2ON(c3ccccc3)C(c3ccccc3F)[C@H]2C(=O)N1c1ccc(Cc2ccc(N3C(=O)[C@@H]4ON(c5ccccc5)C(c5ccccc5F)[C@@H]4C3=O)cc2)cc1 (stereo not given in full)
TGI (DLD-1 colon): > 100 µM
TGI (DMS 273 small cell lung): > 100 µM
TGI (HOP-18 NSCLC): > 100 µM
TGI (KM20L2 colon): > 100 µM
TGI (M19-MEL melanoma): > 100 µM
TGI (RXF-631 renal): > 100 µM
TGI (SNB-78 CNS): > 100 µM
TGI (XF 498 CNS): > 100 µM

COc1cc(C=O)c(-c2cc3c(cc2C2(C)OCCS2)OCO3)c(OC)c1OC (stereo not given)
TGI (DLD-1 colon): 50.7 µM
TGI (DMS 273 small cell lung): 36.8 µM
TGI (KM20L2 colon): 9.17 µM
TGI (SNB-78 CNS): > 239 µM
TGI (XF 498 CNS): 37.1 µM

CN(C(=O)C12C3(C(=O)C(C)(C)C)C4C5(C#N)C3C1(C(=O)C(C)(C)C)C5C42C(=O)C(C)(C)C)C(C)(C)C (stereo not given)
TGI (DLD-1 colon): > 50 µM
TGI (DMS 273 small cell lung): > 50 µM
TGI (KM20L2 colon): > 50 µM
TGI (M19-MEL melanoma): > 50 µM
TGI (RXF-631 renal): > 50 µM
TGI (SNB-78 CNS): > 50 µM
TGI (XF 498 CNS): > 50 µM

O=C(O)C(C(=O)C(=O)C(C(=O)O)c1ccc(Cl)cc1)c1ccc(Cl)cc1 (stereo not given)
TGI (DLD-1 colon): 14.1 µM
TGI (DMS 273 small cell lung): 12.9 µM
TGI (HOP-18 NSCLC): 18.1 µM
TGI (KM20L2 colon): 11.3 µM
TGI (M19-MEL melanoma): 12.5 µM
TGI (SNB-78 CNS): 13.9 µM
TGI (XF 498 CNS): 5.95 µM

CCCCN=C(NC#N)N(Cc1ccccc1)Cc1ccccc1
TGI (DLD-1 colon): 36.4 µM
TGI (DMS 273 small cell lung): 37.1 µM
TGI (HOP-18 NSCLC): > 100 µM
TGI (KM20L2 colon): 52.4 µM
TGI (M19-MEL melanoma): 35.8 µM
TGI (SNB-78 CNS): > 100 µM

O=c1cc(-c2ccccc2)nc(/C=C(\O)c2ccncc2)n1-c1ccccc1
TGI (DLD-1 colon): > 100 µM
TGI (DMS 273 small cell lung): > 100 µM
TGI (HOP-18 NSCLC): > 100 µM
TGI (KM20L2 colon): > 100 µM
TGI (M19-MEL melanoma): > 100 µM
TGI (SNB-78 CNS): > 100 µM

O=C(NCCCCCCNC(=O)n1cc(F)c(=O)[nH]c1=O)NCCCOCCOCCOCCOCCOCCOCCOCCOCCOCCOCCOCCOCCOCCOCCOCCOCCOCCOCCOCCOCCOCCCNC(=O)C(O)C(O)C(OC1OC(CO)C(O)C(O)C1O)C(O)CO (stereo not given)
TGI (DLD-1 colon): > 100 µM
TGI (DMS 273 small cell lung): > 100 µM
TGI (HOP-18 NSCLC): > 100 µM
TGI (KM20L2 colon): > 100 µM
TGI (M19-MEL melanoma): > 100 µM
TGI (MDA-N): > 100 µM
TGI (SN12K1 renal): > 100 µM
TGI (SNB-78 CNS): > 100 µM
TGI (XF 498 CNS): > 100 µM

COc1ccc2nc(NCN3C(=O)c4ccccc4C3=O)sc2c1
TGI (MDA-N): > 100 µM

NC(=O)C(=Cc1ccc(CP(=O)(O)O)cc1)C(N)=O
TGI (DLD-1 colon): > 100 µM
TGI (DMS 273 small cell lung): > 100 µM
TGI (HOP-18 NSCLC): > 100 µM
TGI (KM20L2 colon): > 100 µM
TGI (M19-MEL melanoma): > 100 µM
TGI (SNB-78 CNS): > 100 µM
TGI (XF 498 CNS): > 100 µM

CN(C)C(=S)/N=c1\ss/c(=N\C(=S)N(C)C)n1-c1ccc(Cl)cc1
TGI (DMS 273 small cell lung): > 100 µM
TGI (KM20L2 colon): > 100 µM
TGI (SNB-78 CNS): > 100 µM
TGI (XF 498 CNS): > 100 µM

CCn1c2ccc(C(=O)CCCN(C)C)cc2c2cc(C(=O)CCCN(C)C)ccc21
TGI (MDA-N): 6.8 µM

NC(CC(=O)Nc1ccc(Cl)cc1)=Nc1ccccc1
TGI (DLD-1 colon): > 100 µM
TGI (DMS 273 small cell lung): > 100 µM
TGI (KM20L2 colon): > 100 µM
TGI (M19-MEL melanoma): > 100 µM
TGI (SNB-78 CNS): > 100 µM
TGI (XF 498 CNS): > 100 µM

COC(=O)c1ccc(NC(=O)c2cc(OC)c(OC)c(OC)c2)cc1
TGI (DLD-1 colon): > 100 µM
TGI (DMS 273 small cell lung): > 100 µM
TGI (HOP-18 NSCLC): > 100 µM
TGI (KM20L2 colon): > 100 µM
TGI (M19-MEL melanoma): > 100 µM

CC(C)[NH-].CC(C)[NH-].O.O.[Cl][Pt+2][Cl]
GI50 (DLD-1 colon): 45.1 µM
TGI (DLD-1 colon): 238 µM
GI50 (HOP-18 NSCLC): 60.5 µM
TGI (HOP-18 NSCLC): 337 µM
GI50 (KM20L2 colon): 15.2 µM
TGI (KM20L2 colon): 141 µM
GI50 (M19-MEL melanoma): 21.3 µM
TGI (M19-MEL melanoma): 77.1 µM
GI50 (MDA-N): 17.4 µM
TGI (MDA-N): 106 µM
GI50 (SN12K1 renal): 31.1 µM
TGI (SN12K1 renal): 150 µM
GI50 (SNB-78 CNS): 54.5 µM
TGI (SNB-78 CNS): 375 µM
GI50 (XF 498 CNS): 16 µM
TGI (XF 498 CNS): 51.6 µM

CC(C)N1CCC2(CC1)NNc1ncccc1-n1cccc12
TGI (DLD-1 colon): > 100 µM
TGI (DMS 273 small cell lung): > 100 µM
TGI (HOP-18 NSCLC): > 100 µM
TGI (M19-MEL melanoma): > 100 µM
TGI (SNB-78 CNS): > 100 µM
TGI (XF 498 CNS): > 100 µM

Cc1ccc(C(=O)N2CCN(C(=O)c3ccc(C)cc3)c3ccccc32)cc1
TGI (DLD-1 colon): > 100 µM
TGI (DMS 273 small cell lung): > 35.8 µM
TGI (HOP-18 NSCLC): > 100 µM
TGI (KM20L2 colon): > 32.6 µM
TGI (M19-MEL melanoma): > 100 µM
TGI (MDA-N): > 100 µM
TGI (SNB-78 CNS): > 100 µM
TGI (XF 498 CNS): 70 µM

CC(=O)OC(C)(C)/C=C/C(=O)[C@](C)(O)[C@H]1[C@H](O)C[C@@]2(C)[C@@H]3CC=C4[C@@H](C[C@H](O)C(=O)C4(C)C)[C@]3(CO)C(=O)C[C@]12C
GI50 (DLD-1 colon): 0.216 µM
TGI (DLD-1 colon): 15 µM
GI50 (DMS 273 small cell lung): 0.324 µM
TGI (DMS 273 small cell lung): 0.771 µM
GI50 (HOP-18 NSCLC): 0.216 µM
TGI (HOP-18 NSCLC): 0.646 µM and 1.32 µM
GI50 (M19-MEL melanoma): 0.298 µM
TGI (M19-MEL melanoma): 29.9 µM
GI50 (SNB-78 CNS): 0.269 µM
TGI (SNB-78 CNS): 0.983 µM and 3.92 µM
GI50 (XF 498 CNS): 0.108 µM
TGI (XF 498 CNS): 0.665 µM and 0.209 µM

COc1ccc2nc3cc([N+](=O)[O-])ccc3c(NCCCN(CCO)CCO)c2c1
GI50 (MDA-N): 3.47 µM
TGI (MDA-N): 8.93 µM

CCOC(=O)c1cc2c(cn1)[nH]c1cccc(N)c12
TGI (DLD-1 colon): > 100 µM
TGI (DMS 273 small cell lung): > 100 µM
TGI (HOP-18 NSCLC): > 100 µM
TGI (M19-MEL melanoma): > 100 µM
TGI (SNB-78 CNS): > 100 µM
TGI (XF 498 CNS): > 100 µM

Nc1nc(NC2C=C(CO)C(O)C2O)c([N+](=O)[O-])c(=O)[nH]1 (stereo not given)
TGI (DLD-1 colon): > 100 µM
TGI (DMS 273 small cell lung): > 100 µM
TGI (HOP-18 NSCLC): > 100 µM
TGI (KM20L2 colon): > 100 µM
TGI (M19-MEL melanoma): > 100 µM
TGI (SNB-78 CNS): > 100 µM
TGI (XF 498 CNS): > 100 µM

O=c1cc(-c2ccccc2)[nH]c2c(Cl)cccc12
TGI (DLD-1 colon): > 100 µM
TGI (DMS 273 small cell lung): > 100 µM
TGI (KM20L2 colon): 36 µM
TGI (M19-MEL melanoma): > 100 µM
TGI (RXF-631 renal): > 100 µM
TGI (XF 498 CNS): 96.4 µM

CCOc1ccccc1N1C(=O)C(=O)C(c2nc3ccccc3o2)/C(=N\N)C1=O (stereo not given)
TGI (DLD-1 colon): > 100 µM
TGI (DMS 273 small cell lung): > 100 µM
TGI (KM20L2 colon): > 100 µM
TGI (M19-MEL melanoma): > 100 µM
TGI (SNB-78 CNS): > 100 µM
